The source of these data is PubChem BioAssay AID2305 (GlaxoSmithKline (GSK), 2010).

This test has as its system P. falciparum 3D7 growth, pLDH absorbance. Description: P. falciparum 3D7 growth inhibition, dose response, strain 3D7 (AID 2305).

One may read the IC50 as the concentration that gives 50% inhibition. A low value points to greater potency.

Several values for one entry are separate records, joined by “and”; a condition that tells them apart may be missing. Identical values can stand only once.

The molecule `O=C(/C=C/c1ccc(Cl)c(Cl)c1)NCCCCCN1CCC(n2c(=O)[nH]c3ccccc32)CC1` showed an IC50 of 870 nM.
The molecule `Cn1c(Nc2cc(C(C)(C)C)on2)nc2cc(Nc3ccnc(Nc4cccc(S(=O)(=O)N5CCOCC5)c4)n3)ccc21` came in with an IC50 of 530 nM.
For `CCN(CC)CCNC(=O)c1ccc(N=Cc2c(O)[nH]c3ccc(S(=O)(=O)Cc4c(Cl)cccc4Cl)cc23)cc1` the value was 840 nM.
Then `CCOc1cc(Cc2cnc(N)nc2N)cc(OCC)c1O`, with 1170 nM.
As for `COC(=O)c1cc(C(=O)CN(Cc2ccccc2)C(C)C)ccc1O`, the IC50 amounted to 180 nM.
On to `CCOC(=O)NCC(=O)Nc1cccc(-c2cccc(-c3nc4c(C)cccc4[nH]3)c2)c1`, for which the IC50 was determined as 740 nM.
Turning to `Cn1cnc2c(Nc3ccncc3)nc(-c3ccc4c(c3)OCO4)nc21`, the IC50 was 1110 nM.
For `Cc1cc2nc(-c3ccc(SCC(=O)Nc4ccc5c(c4)OCCO5)nc3)[nH]c2cc1C` the value was 990 nM.
For `Cn1ccnc1-c1nc2ccccn2c1NCC(=O)Nc1ccccc1N1CCCCC1` the value was 980 nM.
`Cc1cccc(S(=O)(=O)Nc2cccc(CCN3CCC(N4CCCCC4)CC3)c2)c1` gave an IC50 of 1330 nM.
Then `Cc1c(C(=O)NC2CCC(CN3CCC(c4c[nH]c5ccccc45)CC3)CC2)cnn1-c1c(Cl)cc(Cl)cc1Cl` (stereo not drawn), with 710 nM; and `NC(=O)COc1c(C2CCN(CCCCNC(=O)c3ccc(-c4ccc(Cl)cc4)c(O)c3)CC2)ccc2c1CCCC2`, with 710 nM; and `CCc1c[nH]c2c(N3CCCS3(=O)=O)cc(C(=O)N[C@@H](Cc3ccccc3)[C@H](O)CNC(C)(C)c3cccc(C(F)(F)F)c3)cc12`, with 230 nM.
Then `Cc1ccc(NC(=O)c2cnc(N3CCN(c4ccncc4)CC3)c(Cl)c2)cc1`, with 960 nM; and `Cc1nc(-c2nc(NCc3ccc4c(c3)OCO4)ncc2-c2ccsc2)sc1C`, with 100 nM.
Then `Cc1nn(-c2ccccc2)c2sc(C(=O)N(CCCN(C)C)c3nc(-c4ccccc4)cs3)cc12`, with 980 nM; and `Fc1ccc2nc(-c3ccc(-c4ccc(CN5CCCCC5)cc4)s3)[nH]c2c1`, with 600 nM; and `Cc1cccc(CC(N)=NCCCCCCN=C(N)Cc2cccc(C)c2)c1`, with 170 nM.
`OC(COc1ccccc1-c1nc2ccccc2o1)CN1CCCN(CCc2ccccc2)CC1` (stereo not drawn) returned an IC50 of 760 nM.
For `O=C(Nc1cc(Cl)cc(Cl)c1)Nc1ccnc2ccccc12` the value was 750 nM; for `O=C(/C=C/c1ccc(Cl)cc1)NCCCCCN1CCCN(C(=O)Nc2ccc(F)c(Cl)c2)CC1`, 780 nM; for `COc1ccc2c(NN=Cc3ccc(F)cc3)ccnc2c1`, 440 nM.
For `CCCCNC(=O)[C@H](CC1CCCCC1)NC(=O)c1ccc(O)c(-c2ccc(OC)cc2)c1` the value was 920 nM.
Turning to `Cc1ccc(S(=O)(=O)NC2=NC(C)(C)N(OCc3ccc(Cl)c(Cl)c3)C(N)=N2)cc1`, the IC50 came out at 1140 nM.
For `CN1N=C2c3ccccc3CCC2C1c1ccc(C#N)cc1` (stereo not drawn) the value was 660 nM.
Then `Cc1cccc(C(=O)Nc2ccnc(N3CCC(N(C)Cc4ccc(C#N)cc4)CC3)c2)c1`, with 910 nM.
Then `Cc1ccc2c(NN=Cc3ccc(Cl)cc3)cc(C)nc2c1`, with 950 nM.
The molecule `CCc1c(C)nc(-n2nc(C)cc2NC(=O)CC(c2ccccc2)c2ccccc2)[nH]c1=O` came in with an IC50 of 650 nM.
Then `COc1ccc(Nc2nccc(NCCNC(=O)Nc3ccccc3F)n2)cc1`, with 1320 nM; and `O=c1cc(NCCC(CNCCc2ccccc2)NCc2cc(Br)cc(Br)c2)[nH]c2ccccc12` (stereo not drawn), with 510 nM.
Then `Cc1[nH]c2c(C)cccc2c1C1CCN(CCC2CCN(C(=O)/C=C/c3ccc(Cl)c(Cl)c3)CC2)CC1`, with 640 nM; and `CCC1=C(C[C@H]2NCCc3cc(OC)c(OC)cc32)C[C@H]2c3cc(OC)c(OC)cc3CCN2C1`, with 310 nM; and `CS(=O)(=O)c1ccc(CNCc2ccc(-c3cccc(-c4nc5ccc(F)cc5[nH]4)c3)cc2)cc1`, with 320 nM.
For `COc1ccc(NC(=O)c2ccc(-c3nc(-c4ccccc4)cs3)cc2)cc1N1CCN(C)CC1` the value was 990 nM; for `Clc1ccc(C2CCN(CCCOc3ccc4c(c3)CCNCC4)CC2)cc1`, 750 nM; for `CCCCCN1CCCC(CNS(=O)(=O)c2cccc(C(=O)Nc3ccc(C(F)(F)F)cc3)c2)C1` (stereo not drawn), 830 nM.
On to `Clc1cccc(-c2nc(Nc3ccnc(-c4ccc(CN5CCOCC5)cc4)c3)c3ccccc3n2)c1`, for which the 50% inhibitory concentration (IC50) is 710 nM.
Molecule `CCCCCCCCOc1ccc(N2C(N)=NC(N)=NC2(C)C)cc1` yielded a half-inhibitory concentration (IC50) of 500 nM.
For `COc1ccc(-n2nc(C)cc2C(=O)NCc2ccc(-c3c(C)noc3C)cc2)cc1` the value was 980 nM; for `CCCN=CNc1cc(-c2csc(N=C(N)N)n2)cc([N+](=O)[O-])c1`, 1740 nM.
Then `O=C(Nc1ccc2c(c1)CCC2)c1cccc(CN2CCCN(Cc3cccc(O)c3)CC2)c1`, with 1080 nM; and `COc1ccc(CN2CCC(CNCCc3c(Cl)cccc3Cl)CC2)cc1`, with 430 nM.
Then `CCOc1ccc(-c2nonc2NC(=O)c2ccccc2Cl)cc1OCC`, with 740 nM; and `OC(CNCc1ccccc1OC(F)F)c1cccc(C(F)(F)F)c1` (stereo not drawn), with 760 nM; and `COc1ccc2c(NN=Cc3cccc(F)c3)ccnc2c1`, with 210 nM.
The molecule `Cc1cc(Nc2ccc3ccccc3c2)n2ncnc2n1` yielded an IC50 of 170 nM.
Then `CN1CCN(c2ccc3nccc(CCN4CCC(NCc5ccc6c(n5)NC(=O)CO6)CC4)c3n2)CC1`, with 820 nM.
Then `CCc1cn2c3c(cc(C(=O)N[C@@H](Cc4ccccc4)[C@H](O)CNC4CCCC4)cc13)N(C)S(=O)(=O)CC2`, with 50 nM.
`CS(=O)(=O)c1cccc(-c2cnc3[nH]cc(-c4ccc(CCC(=O)O)cc4)c3c2)c1` displayed an IC50 of 630 nM.
`CO/C(=C\C=C\c1cc2cc(Cl)c(Cl)cc2[nH]1)C(=O)N[C@H]1CN2CCC1CC2` had an IC50 of 1210 nM.
For `Cc1cc(C=C(P(=O)(OC(C)C)OC(C)C)P(=O)(OC(C)C)OC(C)C)c2ccccc2c1O` the value was 1080 nM; for `O=C(/C=C/c1ccc(Cl)c(Cl)c1)N1CCC(CN2CCC(c3c(Br)[nH]c4ccccc34)CC2)CC1`, 290 nM; for `COCCn1c(SC(C)C(=O)Nc2cc(C(F)(F)F)ccc2Cl)nc2ccccc2c1=O` (stereo not drawn), 630 nM.
Then `O=S(=O)(Nc1cc2c(cc1OCCCN1CCCCC1)CCNCC2)c1ccc(-c2ccc(Cl)cc2)cc1`, with 1000 nM; and `O=C(C=Cc1cccc(Cl)c1Cl)NC1CCC(CN2CCC(c3c[nH]c4ccccc34)CC2)CC1` (stereo not drawn), with 680 nM and 1140 nM.
Then `COC(=O)Cn1c(C2CCN(CC3CCC(NC(=O)/C=C/c4ccc(Cl)c(Cl)c4)CC3)CC2)nc2ccccc21` (stereo not drawn), with 1140 nM.
`CCN(CC)CCCC(C)Nc1c2ccccc2nc2c1ccc1ccccc12` (stereo not drawn) yielded an IC50 of 1090 nM.
Then `Cc1cccc(NC(=O)NCc2ccccc2)n1`, with 940 nM; and `CC(=O)Nc1ccc(CNC2Cc3ccc(-c4ccc(Cl)c(Cl)c4)cc3C2)cc1` (stereo not drawn), with 1000 nM; and `N#Cc1cccc(Nc2nccc(NCC(O)c3ccccc3C(F)(F)F)n2)c1` (stereo not drawn), with 830 nM.
Molecule `COc1ccccc1C1CCN(C2CCC(NC(=O)/C=C/c3cc(F)cc(C(F)(F)F)c3)CC2)CC1` (stereo not drawn) had an IC50 of 900 nM.
For `COc1cccc(-c2cnc(N)c(-c3nc4ccc(F)cc4[nH]3)c2)c1` the value was 850 nM; for `N#Cc1cccc(C(=O)Nc2ccc(-c3cccc(CN4CCC(O)CC4)c3)cc2)c1`, 1000 nM; for `CCNC(=O)Nc1ccc(-c2ccc(-c3nc4c(C)cccc4[nH]3)s2)cc1`, 1070 nM.
`Cn1cnc(CCNC(=O)c2cccc(-c3cccc(-c4nc5ccc(C(F)(F)F)cc5[nH]4)c3)c2)c1` had an IC50 of 700 nM.
`COc1ccc(CCN(Cc2cccs2)C(=O)c2cc3sccc3n2C)cc1OC` had an IC50 of 350 nM.
In turn, `COc1ccccc1C(=O)Nc1ccc(Nc2nc(C)cc(N3CCOCC3)n2)cc1` showed an IC50 of 530 nM.
As for `COc1ccc2nccc(C(=O)NC3CCC(CCN4CCc5cc(C#N)ccc5C4)CC3)c2c1` (stereo not drawn), the IC50 came to 1160 nM.
As for `Cc1nc(C)c(CC(=O)Nc2cccc(-c3cccc(-c4nc5c(C)cccc5[nH]4)c3)c2)s1`, the IC50 was 750 nM.
Then `Cc1cccc2[nH]c(-c3ccc(-c4cccc(C(=O)NCCN5CCCC5)c4)s3)nc12`, with 1140 nM.
On to `CC(=O)Nc1ccc(CN(Cc2ccc(C)cc2)Cc2cccc(Oc3ccccc3)c2)cc1`, for which the IC50 came to 1050 nM.
Then `COc1ccc(-c2cc(C(=O)N[C@@H](Cc3ccccc3)C(=O)NCCN3CCCCC3)ccc2O)cc1`, with 790 nM; and `O=C(C1COc2ccccc2O1)N(CCCn1ccnc1)Cc1csc(-c2ccc(CNCc3ccccc3)cc2)n1` (stereo not drawn), with 620 nM; and `Cc1cccc2[nH]c(-c3cccc(-c4ccc(NC(=O)C(C)CN(C)C)cc4)c3)nc12` (stereo not drawn), with 220 nM.
For `O=C(Nc1ccc(OC2CCN(Cc3ccc(F)cc3)C2)cc1)c1ccco1` (stereo not drawn) the value was 1040 nM.
For `COc1ccc2nccc(NN=Cc3cccc(F)c3)c2c1` the value was 750 nM.
The molecule `C[C@@H](C(=O)N1CCOCC1)N1CC[C@H](NS(=O)(=O)c2ccc3ccnc(N)c3c2)C1=O` gave an IC50 of 1500 nM.
Then `CCCCOc1cc2[nH]cc(C(=O)OCC)c(=O)c2cc1OCCCC`, with 200 nM; and `O=C(c1ccccc1)N1CCC(CN2CCOC(c3ccccc3)(c3ccccc3)C2)CC1`, with 500 nM; and `c1ccc2[nH]c(-c3ccc(-c4ccc(CN5CCN(c6ccncc6)CC5)cc4)cc3)nc2c1`, with 160 nM.
As for `CN(C)c1ccc(CN2CCCCC(NC(=O)c3cc(-c4ccccc4Cl)cs3)C2)cc1` (stereo not drawn), the IC50 is 1060 nM.
For `Cc1ccnc(NC(c2cccc(Cl)c2Cl)c2ccc3cccnc3c2O)c1` (stereo not drawn) the value was 1000 nM; for `Cc1cc2c(cc1C(F)(F)F)N(C(=O)Nc1cccc(C(=O)NC3CCN(Cc4ccccc4)CC3)c1)CC2`, 910 nM; for `N#Cc1ccc(NC(=NCc2ccc(Cl)cc2Cl)Nc2cccc(Cl)c2Cl)c(O)c1`, 1120 nM.
For `COc1cc(Cc2cnc(N)nc2N)cc(OCCCCc2ccc([N+](=O)[O-])cc2)c1OC` the value was 990 nM; for `CNC(=O)c1cnc(Nc2ccc(N3CCOCC3)cc2)nc1Nc1cccc(OC)c1`, 760 nM; for `CN(C)Cc1ccc2nc(-c3cccc(Cc4cc(Cl)ccc4OCc4ccc(Cl)cc4F)n3)[nH]c2c1`, 1130 nM.
For `CCOC(=O)C(NC(=O)Cc1ccccc1)C(C)C` (stereo not drawn) the value was 290 nM.
